Like-named read-outs stand apart in the source and are kept apart here. A value given as a limit tells only on which side of the number the result lay.

These results are taken from patent publication US20250092065A1, “2-(INDAZOL-5-YL)-6-(PIPERIDIN-4-YL)-1,7-NAPHTHYRIDINE DERIVATIVES AND RELATED COMPOUNDS AS MODULATORS FOR SPLICING NUCLEIC ACIDS AND FOR THE TREATMENT OF PROLIFERATIVE DISEASES” (REMIX THERAPEUTICS INC., priority 2022, published 2025).

The test system of one series is HTT. Description: HiBiT protein abundance assay, HTT (K562 HiBiT knock-in). Format: cell-based, human. The settings on record: HiBiT knock-in K562 cells, 24 hours, top dose 10 μM. The gist of the method: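 Tagged-protein levels were measured as HiBiT/LgBiT luminescence in lysed K562 knock-in cells exposed to serially diluted compound (up to 10 μM final) for 24 hours. A four-parameter logistic regression of control-normalized signal yielded the IC50.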

The subject of another series is Target C. Description: HiBiT protein abundance assay, Target C (K562 HiBiT knock-in). Format: cell-based, human. The settings on record: HiBiT knock-in K562 cells, 24 hours, top dose 10 μM. The method in brief: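 K562 HiBiT knock-in cells (10000/well) were treated 24 h at 37° C with a 10-point 3-fold dilution series (top 10 μM final, ≤0.25% DMSO). HiBiT luminescence was read after lytic LgBiT detection. Percent response used unmodified K562 and DMSO-treated knock-in controls, and IC50 came from a four-parameter fit at 50% of untreated.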

Another series has as its system MYB mRNA. Put plainly: RT-qPCR splicing assay, MYB mRNA canonical (CJ) and alternative (AJ) junction. Format: cell-based, human. The settings on record: Homo sapiens; for AC50: MYB alternative junction mRNA, read-out: MYB AJ (increase in AJ mRNA, AC50). The method in brief:
(§1)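 A673 or K562 cells treated 24 h at 37 °C with 11-point 3-fold dilutions (top final 10 uM, DMSO ≤0.25%). Lysates analysed by one-step RT-qPCR for canonical (CJ) and alternative-exon (AJ) junctions, normalized to GAPDH, GUSB or PPIA. ΔΔCt vs DMSO, RQ = 2^(−ΔΔCt), expressed as percentage response.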

The next series has as its system K562 cells. Description: Cell Titer Glo 2.0 cell viability (toxicity) assay, K562. The settings on record: 500 cells/well, 72 hours.
In a further series the test system is HTT mRNA. Description: RT-qPCR splicing assay, HTT mRNA canonical (CJ) and alternative (AJ) junction. Type of series: cell-based, human. The settings on record: Homo sapiens; for AC50: HTT alternative junction mRNA, read-out: HTT AJ (increase in AJ mRNA, AC50). The gist of the method: as §1
The mark [1] stands for this setting: MYB canonical junction mRNA, RT-qPCR, read-out: MYB CJ (decrease in CJ mRNA levels, IC50).
Where [2] appears, read: canonical junction qPCR panel, Table 4, read-out: MYB IC50 (decrease in CJ mRNA levels).
Setting [3] is: HTT canonical junction mRNA, RT-qPCR, read-out: HTT CJ (decrease in CJ mRNA levels, IC50).
The mark [4] stands for this setting: canonical junction qPCR panel, Table 4, read-out: HTT IC50 (decrease in CJ mRNA levels).

Turning to `Cc1nc2c(F)c(O)c(-c3ccc4nc(N5CCC(NC6(C)CC6)C5)ccc4n3)cc2o1` (stereo not drawn) [Compound 325, 4-fluoro-2-methyl-6-(6-{3-[(1-methylcyclopropyl)amino]pyrrolidin-1-yl}-1,5-naphthyridin-2-yl)-1,3-benzoxazol-5-ol], the IC50 with HTT, in the series with Target C, in the series on MYB mRNA (setting [1]), in the series with MYB mRNA (setting [2]), in the series on HTT mRNA (setting [3]) and in the series on HTT mRNA (setting [4]) was less than 0.1 µM throughout. The AC50 in the series with MYB mRNA (RT-qPCR) and in the series with HTT mRNA (RT-qPCR) was less than 0.1 µM each time. The “Effect of Exemplary Compounds on Cell Viability, K562” value (from here on “Effect of Exemplary Compounds”) in the series on K562 cells is “B (B represents 100-1000 nM)”.

For `Cc1nc2c(F)c(O)c(-c3ccc4nc(N5CCC(NC(C)C)C5)ccc4n3)cc2o1` (stereo not drawn) [Compound 328, 4-fluoro-6-{6-[3-(isopropylamino)pyrrolidin-1-yl]-1,5-naphthyridin-2-yl}-2-methyl-1,3-benzoxazol-5-ol], the IC50 in the series with HTT, with Target C, in the series on MYB mRNA (setting [1]), with MYB mRNA (setting [2]), in the series with HTT mRNA (setting [3]) and in the series on HTT mRNA (setting [4]) was less than 0.1 µM each time. Besides, the AC50 with MYB mRNA (RT-qPCR) and in the series on HTT mRNA (RT-qPCR) was less than 0.1 µM each time. In addition, the “Effect of Exemplary Compounds” value in the series on K562 cells is given as “A (A represents <100 nM)”.

With `CN[C@@H]1CCN(c2ccc3nc(-c4cc(F)c5nc(C)cn5c4)ncc3n2)C1` [Compound 331, (3R)-1-(2-{8-fluoro-2-methylimidazo[1,2-a]pyridin-6-yl}pyrido[3,2-d]pyrimidin-6-yl)-N-methylpyrrolidin-3-amine], the IC50 is 0.1 to 1 µM with HTT; 0.1 to 1 µM with Target C; less than 0.1 µM with MYB mRNA (setting [1]); less than 0.1 µM in the series on MYB mRNA (setting [2]); 0.1 to 1 µM in the series on HTT mRNA (setting [3]); 0.1 to 1 µM in the series with HTT mRNA (setting [4]). Besides, the AC50 with MYB mRNA (RT-qPCR) and in the series on HTT mRNA (RT-qPCR) was 0.1 to 1 µM in each case. In the series with K562 cells, the “Effect of Exemplary Compounds” value is given as “B (B represents 100-1000 nM)”.

As to `CN[C@H]1CCN(c2ccc3nc(-c4cc(F)c5nc(C)cn5c4)ncc3n2)C1` [Compound 332, (S)-1-(2-(8-fluoro-2-methylimidazo[1,2-a]pyridin-6-yl)pyrido[3,2-d]pyrimidin-6-yl)-N-methylpyrrolidin-3-amine], the concentration for half-maximal inhibition (IC50) in the series with HTT, with Target C, with MYB mRNA (setting [1]), with MYB mRNA (setting [2]), in the series with HTT mRNA (setting [3]) and in the series with HTT mRNA (setting [4]) was 0.1 to 1 µM throughout. For the same compound, the AC50 with MYB mRNA (RT-qPCR) and in the series with HTT mRNA (RT-qPCR) was 0.1 to 1 µM in each case. Moreover, in the series with K562 cells, the “Effect of Exemplary Compounds” value is “B (B represents 100-1000 nM)”.

As for `CC(C)(C)NC1CCN(c2ccc3nc(-c4cc5oc(C6CC6)nc5cc4O)ccc3n2)C1` (stereo not drawn) [Compound 333, 6-{6-[3-(tert-butylamino)pyrrolidin-1-yl]-1,5-naphthyridin-2-yl}-2-cyclopropyl-1,3-benzoxazol-5-ol], the IC50 with HTT, with Target C, in the series with MYB mRNA (setting [1]), with MYB mRNA (setting [2]), in the series with HTT mRNA (setting [3]) and with HTT mRNA (setting [4]) was 0.1 to 1 µM throughout. Further, the concentration at half-maximal activity (AC50) with MYB mRNA (RT-qPCR) and in the series on HTT mRNA (RT-qPCR) was 0.1 to 1 µM each time. Besides, the “Effect of Exemplary Compounds” value in the series with K562 cells is reported as “B (B represents 100-1000 nM)”.

Turning to `COCc1nc2cc(O)c(-c3ccc4nc(N5CCC(NC(C)(C)C)C5)ccc4n3)cc2o1` (stereo not drawn) [Compound 334, 6-{6-[3-(tert-butylamino)pyrrolidin-1-yl]-1,5-naphthyridin-2-yl}-2-(methoxymethyl)-1,3-benzoxazol-5-ol], the IC50 with HTT, in the series with Target C, with MYB mRNA (setting [1]), in the series with MYB mRNA (setting [2]), in the series with HTT mRNA (setting [3]) and in the series with HTT mRNA (setting [4]) was 0.1 to 1 µM in each case. The AC50 in the series on MYB mRNA (RT-qPCR) and with HTT mRNA (RT-qPCR) was 0.1 to 1 µM in each case. Moreover, the “Effect of Exemplary Compounds” value in the series on K562 cells is “B (B represents 100-1000 nM)”.

On to `COc1cc2nc(C3COC3)oc2cc1-c1ccc2nc(N3CCC(NC(C)(C)C)C3)ccc2n1` (stereo not drawn) [Compound 335], for which the IC50 in the series on HTT, with Target C, in the series with MYB mRNA (setting [1]), in the series on MYB mRNA (setting [2]), in the series with HTT mRNA (setting [3]) and in the series on HTT mRNA (setting [4]) was 1 to 10 µM each time. For the same compound, the AC50 in the series on MYB mRNA (RT-qPCR) and in the series with HTT mRNA (RT-qPCR) was 1 to 10 µM throughout. In the series with K562 cells, the “Effect of Exemplary Compounds” value is reported as “C (C represents 1000-9999 nM)”.

In the case of `CC(C)(C)NC1CCN(c2ccc3nc(-c4cc5oc(CO)nc5cc4O)ccc3n2)C1` (stereo not drawn) [Compound 336, 6-{6-[3-(tert-butylamino)pyrrolidin-1-yl]-1,5-naphthyridin-2-yl}-2-(hydroxymethyl)-1,3-benzoxazol-5-ol], the IC50 in the series with HTT was less than 0.1 µM; with Target C it was less than 0.1 µM; in the series with MYB mRNA (setting [1]), 0.1 to 1 µM; with MYB mRNA (setting [2]), 0.1 to 1 µM; with HTT mRNA (setting [3]), less than 0.1 µM; with HTT mRNA (setting [4]), less than 0.1 µM. Moreover, the AC50 in the series on MYB mRNA (RT-qPCR) and with HTT mRNA (RT-qPCR) was 0.1 to 1 µM in each case. Moreover, the “Effect of Exemplary Compounds” value with K562 cells is given as “A (A represents <100 nM)”.

Regarding `CNC1CCN(c2ccc3nc(-c4cc5cn(C)nc5c(C)c4O)ncc3n2)C1` (stereo not drawn) [Compound 337, 2,7-dimethyl-5-{6-[3-(methylamino)pyrrolidin-1-yl]pyrido[3,2-d]pyrimidin-2-yl}indazol-6-ol], the IC50 is 0.1 to 1 µM with HTT; 0.1 to 1 µM in the series with Target C; less than 0.1 µM with MYB mRNA (setting [1]); less than 0.1 µM in the series on MYB mRNA (setting [2]); 0.1 to 1 µM in the series on HTT mRNA (setting [3]); 0.1 to 1 µM in the series with HTT mRNA (setting [4]). The half-maximal activity concentration (AC50) is less than 0.1 µM with MYB mRNA (RT-qPCR) and 0.1 to 1 µM in the series with HTT mRNA (RT-qPCR). For the same compound, the “Effect of Exemplary Compounds” value in the series with K562 cells was “A (A represents <100 nM)”.

`Cc1c(O)c(-c2ncc3nc(N4CCNCC4)ccc3n2)cc2cn(C)nc12` [Compound 338, 2,7-dimethyl-5-[6-(piperazin-1-yl)pyrido[3,2-d]pyrimidin-2-yl]indazol-6-ol]: the IC50 in the series on HTT is 0.1 to 1 µM; in the series with Target C, 0.1 to 1 µM; in the series on MYB mRNA (setting [1]), less than 0.1 µM; in the series with MYB mRNA (setting [2]), less than 0.1 µM; in the series on HTT mRNA (setting [3]) it was 0.1 to 1 µM; with HTT mRNA (setting [4]) it was 0.1 to 1 µM. Further, the figures for the AC50 in the series on MYB mRNA (RT-qPCR) and in the series with HTT mRNA (RT-qPCR) were 0.1 to 1 µM and 1 to 10 µM, respectively. In addition, the “Effect of Exemplary Compounds” value with K562 cells is listed as “B (B represents 100-1000 nM)”.

`Cc1nc2cc(O)c(-c3ccc4nc(N5CCC(NC(C)(C)C)C5)ccc4n3)cc2n1C` (stereo not drawn) [Compound 339, 6-{6-[3-(tert-butylamino)pyrrolidin-1-yl]-1,5-naphthyridin-2-yl}-1,2-dimethyl-1,3-benzodiazol-5-ol]: the IC50 in the series on HTT, in the series on Target C, with MYB mRNA (setting [1]), with MYB mRNA (setting [2]), with HTT mRNA (setting [3]) and in the series with HTT mRNA (setting [4]) was 0.1 to 1 µM each time. Also, the half-maximal activity concentration (AC50) in the series on MYB mRNA (RT-qPCR) and in the series with HTT mRNA (RT-qPCR) was 0.1 to 1 µM throughout. In the series with K562 cells, the “Effect of Exemplary Compounds” value is listed as “B (B represents 100-1000 nM)”.

As for `Cc1nc2cc(-c3ccc4nc(N5CCC(NC(C)(C)C)C5)ccc4n3)c(O)cc2n1C` (stereo not drawn) [Compound 340, 6-{6-[3-(tert-butylamino)pyrrolidin-1-yl]-1,5-naphthyridin-2-yl}-2,3-dimethyl-1,3-benzodiazol-5-ol], the IC50 in the series with HTT, with Target C, in the series on MYB mRNA (setting [1]), with MYB mRNA (setting [2]), with HTT mRNA (setting [3]) and in the series with HTT mRNA (setting [4]) was 0.1 to 1 µM in each case. Moreover, the AC50 in the series with MYB mRNA (RT-qPCR) and with HTT mRNA (RT-qPCR) was 0.1 to 1 µM each time. In addition, the “Effect of Exemplary Compounds” value in the series on K562 cells is given as “A (A represents <100 nM)”.

`Cn1cc2cc(-c3ccc4nc(N5CCC(NC67CC(O)(C6)C7)C5)ccc4n3)c(O)cc2n1` (stereo not drawn) [Compound 341, 5-{6-[3-({3-hydroxybicyclo[1.1.1]pentan-1-yl}amino)pyrrolidin-1-yl]-1,5-naphthyridin-2-yl}-2-methylindazol-6-ol]: the concentration for half-maximal inhibition (IC50) was 0.1 to 1 µM in the series with HTT; less than 0.1 µM in the series on Target C; 0.1 to 1 µM in the series with MYB mRNA (setting [1]); 0.1 to 1 µM with MYB mRNA (setting [2]); 0.1 to 1 µM in the series on HTT mRNA (setting [3]); 0.1 to 1 µM with HTT mRNA (setting [4]). The AC50 in the series on MYB mRNA (RT-qPCR) and in the series with HTT mRNA (RT-qPCR) was 0.1 to 1 µM throughout. Further, in the series on K562 cells, the “Effect of Exemplary Compounds” value is listed as “B (B represents 100-1000 nM)”.
